± gives the standard deviation of the averaged measurements.
Tests used:
Assay in all cases: level (log10 ratio to DMSO vehicle control); higher = higher biomarker level / cell amount than vehicle control
Settings in all cases: in DMSO
[1] = compound: C=CC(F)(F)C(F)(F)C(F)(F)C(F)(F)C(F)(F)C(F)(F)C(F)(F)C(F)(F)C=C [1,8-Divinylperfluorooctane]
Experimental: (§1)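 BioMAP Diversity Plus panel of 12 human primary cell co-culture systems (3C, 4H, LPS, SAg, BT, BF4T, BE3C, CASM3C, HDF3CGF, KF3CT, MyoF, Mphg). Compounds were added 1 h before stimulation and left for 24 h (MyoF 48 h; BT 72 h for soluble read-outs or 6 d for IgG). Biomarkers were read by ELISA, cytotoxicity by SRB, PBMC viability and proliferation by Alamar Blue. Each well value was divided by the mean of 8 DMSO control wells on the same plate and log10 transformed; duplicate blinded samples were tested at 4 concentrations.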

[2] = compound: O=C(O)C(F)(F)OC(F)(F)C(F)(F)OC(F)(F)C(=O)O [Perfluoro-3,6-dioxaoctane-1,8-dioic acid]
Experimental: as §1

[3] = compound: FC(F)(F)C(F)(F)C(F)(F)C(F)(F)C(F)(F)C(F)(F)C(F)(F)C(F)(F)CCS [2-(Perfluorooctyl)ethanthiol]
Experimental: as §1

[4] = compound: O=C(O)C(F)(F)OC(F)(F)C(F)(F)OC(F)(F)F [Perfluoro-3,6-dioxaheptanoic acid]
Experimental: as §1

Perfluoroheptanoic acid = compound: O=C(O)C(F)(F)C(F)(F)C(F)(F)C(F)(F)C(F)(F)C(F)(F)F [Perfluoroheptanoic acid]
Experimental: as §1

[5] = compound: COC(=O)CCC(F)(F)C(F)(F)C(F)(F)C(F)(F)F [Methyl 2H,2H,3H,3H-perfluoroheptanoate]
Experimental: as §1

Perfluorobutanoic acid = compound: O=C(O)C(F)(F)C(F)(F)C(F)(F)F [Perfluorobutanoic acid]
Experimental: as §1

Test System	level (log10) ([1]; 6700 nM)	level (log10) ([1]; 20000 nM)	level (log10) ([2]; 6700 nM)	level (log10) ([2]; 20000 nM)	level (log10) ([2]; 60000 nM)	level (log10) ([3]; 6700 nM)	level (log10) ([3]; 20000 nM)	level (log10) ([4]; 6700 nM)	level (log10) ([4]; 20000 nM)	level (log10) ([4]; 60000 nM)	level (log10) (Perfluoroheptanoic acid; 6700 nM)	level (log10) (Perfluoroheptanoic acid; 20000 nM)	level (log10) (Perfluoroheptanoic acid; 60000 nM)	level (log10) ([5]; 6700 nM)	level (log10) ([5]; 20000 nM)	level (log10) ([5]; 60000 nM)	level (log10) (Perfluorobutanoic acid; 6700 nM)	level (log10) (Perfluorobutanoic acid; 20000 nM)	level (log10) (Perfluorobutanoic acid; 60000 nM)
LPS:CD142/Tissue Factor	-0.035 ± 0.035	-0.043 ± 0.057	0.034 ± 0.038	0.0025 ± 0.016	0.015 ± 0.061	0.0455 ± 0.081	0.097 ± 0.065	-0.0335 ± 0.011	0.0145 ± 0.023	0.009 ± 0.0028	-0.0025 ± 0.005	-0.007 ± 0.013	0.0245 ± 0.005	0.0015 ± 0.067	0.0175 ± 0.054	-0.019 ± 0.0085	0.0045 ± 0.037	-0.0205 ± 0.00071	-0.0045 ± 0.019
3C:CXCL9/MIG	-0.0085 ± 0.0064	0.0025 ± 0.0092	0.003 ± 0.0057	-0.009 ± 0.0028	0.0095 ± 0.005	0.002	0.0115 ± 0.005	-0.012 ± 0.0042	-0.0005 ± 0.019	0.0065 ± 0.005	0.0115 ± 0.0035	-0.01 ± 0.0071	0.0135 ± 0.0078	-0.011 ± 0.011	-0.0115 ± 0.012	-0.0055 ± 0.015	-0.003 ± 0.0042	-0.0015 ± 0.011	0.0085 ± 0.0078
BE3C:EGFR	-0.0015 ± 0.022	-0.006	0.0115 ± 0.015	0.005 ± 0.021	0.0195 ± 0.077	0.025 ± 0.013	0.0035 ± 0.03	-0.0185 ± 0.012	0.003 ± 0.021	0.007 ± 0.02	-0.0065 ± 0.0078	0.0045 ± 0.0021	-0.0005 ± 0.033	-0.029 ± 0.021	0.008 ± 0.0042	-0.022 ± 0.0071	0.002 ± 0.0042	0.005 ± 0.0099	-0.0035 ± 0.0035
SAg:CCL2/MCP-1	-0.001 ± 0.0028	0.004 ± 0.0014	0.0065 ± 0.0035	-0.0145 ± 0.00071	-0.0095 ± 0.0064	-0.0085 ± 0.019	0.017 ± 0.0028	0.0125 ± 0.032	0.002 ± 0.035	-0.0025 ± 0.033	-0.013 ± 0.0085	0.0215 ± 0.011	0.0215 ± 0.013	0 ± 0.014	-0.027 ± 0.0014	-0.0015 ± 0.0035	-0.012 ± 0.0028	-0.014	0.0175 ± 0.025
BF4T:MMP-3	0.021 ± 0.016	0.0005 ± 0.005	-0.001 ± 0.0028	-0.004 ± 0.0028	0.031 ± 0.025	-0.0515 ± 0.0035	-0.0285 ± 0.015	-0.0065 ± 0.029	-0.0075 ± 0.025	0.0065 ± 0.0078	-0.027 ± 0.023	-0.011	0.046 ± 0.048	-0.0135 ± 0.015	-0.021 ± 0.03	-0.0185 ± 0.0035	0.0005 ± 0.035	0.0045 ± 0.015	0.006 ± 0.033
BT:Secreted IgG	0.022 ± 0.0071	0.0255 ± 0.019	0.032 ± 0.025	0.0095 ± 0.005	-0.0365 ± 0.036	0.02 ± 0.0071	0.016 ± 0.0014	0.003 ± 0.016	-0.016 ± 0.018	-0.018 ± 0.0057	0.0185 ± 0.0092	0.007 ± 0.027	-0.0365 ± 0.011	0.015 ± 0.017	-0.002 ± 0.0071	-0.025 ± 0.018	0.017 ± 0.0028	-0.02 ± 0.035	0.0055 ± 0.022
LPS:CD141/Thrombomodulin	-0.0025 ± 0.00071	0.011 ± 0.021	0.0085 ± 0.019	0.0165 ± 0.0092	0.003 ± 0.027	0.0055 ± 0.0064	-0.0385 ± 0.028	-0.033 ± 0.081	-0.018 ± 0.067	-0.0165 ± 0.012	-0.0115 ± 0.03	0.002 ± 0.011	-0.035 ± 0.0099	-0.0375 ± 0.037	-0.0325 ± 0.0092	-0.0255 ± 0.0078	-0.0035 ± 0.046	-0.0295 ± 0.05	0.008 ± 0.054
BE3C:CXCL10/IP-10	0.0075 ± 0.0021	0 ± 0.017	-0.003 ± 0.0057	0 ± 0.0014	0.005 ± 0.013	0.0405 ± 0.05	0.016 ± 0.058	-0.03 ± 0.016	-0.0115 ± 0.018	-0.0095 ± 0.0078	0.0055 ± 0.022	0.0065 ± 0.0092	0.0045 ± 0.011	-0.001 ± 0.013	-0.004 ± 0.0057	-0.006 ± 0.0099	0.0065 ± 0.00071	-0.001 ± 0.011	0.0085 ± 0.0078
BF4T:MMP-9	-0.004 ± 0.071	-0.0115 ± 0.033	-0.021 ± 0.0057	-0.0135 ± 0.005	0.02 ± 0.017	-0.047 ± 0.0099	-0.057 ± 0.013	-0.028 ± 0.059	-0.028 ± 0.031	-0.0155 ± 0.022	0.0145 ± 0.016	0.0445 ± 0.022	0.103 ± 0.054	0.007 ± 0.034	0.0165 ± 0.047	0.012 ± 0.055	0.006 ± 0.045	0.006 ± 0.059	0.022 ± 0.059
BF4T:CD90	0.0025 ± 0.0064	-0.002 ± 0.0071	-0.012 ± 0.0028	-0.0085 ± 0.005	-0.004 ± 0.0028	-0.003 ± 0.0028	-0.0065 ± 0.005	-0.012 ± 0.0042	0.001 ± 0.0099	-0.011 ± 0.0014	-0.01 ± 0.0042	-0.001 ± 0.0014	-0.0005 ± 0.0021	-0.009 ± 0.011	-0.0045 ± 0.0064	-0.032 ± 0.013	-0.001 ± 0.0028	-0.0055 ± 0.00071	-0.0075 ± 0.0078
